{
  "source": "ChEMBL document CHEMBL5226361",
  "about": "“Marine Sponge-Derived Alkaloid Induces Mitochondrial Dysfunction and Inhibits the PI3K/AKT/mTOR Signaling Pathway against Burkitt's Lymphoma” (J Nat Prod, 2023)",
  "key": {"[1]": {"experiment": "Inhibition of PI3K/AKT/mTOR signalling pathway in human Raji cells assessed as increase in ratio of PI3K phosphorylation to total PI3K protein level at 5 uM incubated for 12 hrs in the presence of YS49 by Western blot analysis", "format": "cell-based"}, "Raji [2]": {"tested_on": "Raji", "experiment": "Induction of cell cycle arrest at G0/G1 phase in human Raji cells assessed as upregulation of gamma-H2AX protein expression at 1.25 to 5 uM incubated for 24 to 48 hrs by Western blot analysis", "format": "functional, cell-based", "settings": "dose 1.25-5 µM, time 24-48 hrs"}, "[3]": {"experiment": "Inhibition of PI3K/AKT/mTOR signalling pathway in human Raji cells assessed as inhibition of AKT phosphorylation at […] residue incubated for 24 hrs by Western blot analysis", "format": "cell-based", "settings": "dose 1.25-5 µM"}, "Raji [4]": {"tested_on": "Raji", "experiment": "Induction of mitochondrial respiratory chain damage in human Raji cells assessed as decrease in SDHA protein expression at 2.5 to 5 uM incubated for 48 hrs by Western blot analysis", "format": "functional, cell-based", "settings": "dose 2.5-5 µM"}, "Daudi [5]": {"tested_on": "Daudi", "experiment": "Induction of apoptosis in human Daudi cells assessed as total apoptotic cells at 3 uM incubated for 24 hrs by Annexin-V/PI staining based flow cytometric analysis relative to control", "format": "functional"}, "Raji [6]": {"tested_on": "Raji", "experiment": "Induction of cell cycle arrest at G0/G1 phase in human Raji cells assessed as upregulation of p21 protein expression at 1.25 to 5 uM incubated for 24 to 48 hrs by Western blot analysis", "format": "functional, cell-based", "settings": "dose 1.25-5 µM, time 24-48 hrs"}, "Daudi [7]": {"tested_on": "Daudi", "experiment": "Induction of apoptosis in human Daudi cells assessed as necrotic cells at 3 uM incubated for 24 hrs by Annexin V-FITC/PI staining based flow cytometric analysis (reference value: 1.0%)", "format": "functional"}, "[8]": {"experiment": "Inhibition of PI3K/AKT/mTOR signalling pathway in human Raji cells assessed as inhibition of mTOR phosphorylation incubated for 24 hrs by Western blot analysis", "format": "cell-based", "settings": "dose 1.25-5 µM"}, "Raji [9]": {"tested_on": "Raji", "experiment": "Induction of mitochondrial dysfunction in human Raji cells assessed as decrease in ATP-5H protein expression at 2.5 to 5 uM incubated for 48 hrs by Western blot analysis", "format": "functional, cell-based", "settings": "dose 2.5-5 µM"}, "Daudi [10]": {"tested_on": "Daudi", "experiment": "Induction of mitochondrial dysfunction in human Daudi cells assessed as decrease in ATP-5J protein expression at 1.5 to 3 uM incubated for 48 hrs by Western blot analysis", "format": "functional, cell-based", "settings": "dose 1.5-3 µM"}, "Raji [11]": {"tested_on": "Raji", "experiment": "Induction of apoptosis in human Raji cells assessed as upregulation of cytochrome C expression at 1.25 to 5 uM incubated for 24 hrs by Western blot analysis", "format": "functional, cell-based", "settings": "dose 1.25-5 µM"}, "Daudi [12]": {"tested_on": "Daudi", "experiment": "Induction of mitochondrial oxidative damage in human Daudi cells assessed as increase in intracellular mitochondrial superoxide generation at 3 uM incubated for 1 to 6 hrs by MitoSOX red dye based flow cytometric analysis", "format": "functional, cell-based", "settings": "time 1-6 hrs"}, "Raji [13]": {"tested_on": "Raji", "experiment": "Induction of cell cycle arrest at G0/G1 phase in human Raji cells assessed as downregulation of CyclinE1 protein expression at 1.25 to 5 uM incubated for 24 to 48 hrs by Western blot analysis", "format": "functional, cell-based", "settings": "dose 1.25-5 µM, time 24-48 hrs"}, "Raji [14]": {"tested_on": "Raji", "experiment": "Induction of apoptosis in human Raji cells assessed as downregulation of Mcl-1 expression at 1.25 to 5 uM incubated for 24 hrs by Western blot analysis", "format": "functional, cell-based", "settings": "dose 1.25-5 µM"}, "Raji [15]": {"tested_on": "Raji", "experiment": "Effect on total PI3K protein level in human Raji cells at 1.25 to 5 uM incubated for 24 hrs by Western blot analysis", "format": "functional, cell-based", "settings": "dose 1.25-5 µM"}, "Raji [16]": {"tested_on": "Raji", "experiment": "Induction of mitochondrial respiratory chain damage in human Raji cells assessed as decrease in CYC1 protein expression at 2.5 to 5 uM incubated for 48 hrs by Western blot analysis", "format": "functional, cell-based", "settings": "dose 2.5-5 µM"}, "Daudi [17]": {"tested_on": "Daudi", "experiment": "Induction of mitochondrial respiratory chain damage in human Daudi cells assessed as decrease in SDHA protein expression at 1.5 to 3 uM incubated for 48 hrs by Western blot analysis", "format": "functional, cell-based", "settings": "dose 1.5-3 µM"}, "Daudi [18]": {"tested_on": "Daudi", "experiment": "Downregulation of c-Myc expression level in human Daudi cells incubated for 24 hrs by Western blot analysis", "format": "functional, cell-based", "settings": "dose 0.75-3 µM"}, "Raji [19]": {"tested_on": "Raji", "experiment": "Induction of mitochondrial dysfunction in human Raji cells assessed as decrease in ATP content incubated for 24 hrs by CellTiter-Lumi […] assay", "format": "functional, cell-based", "settings": "dose 1.25-5 µM"}, "Raji [20]": {"tested_on": "Raji", "experiment": "Induction of apoptosis in human Raji cells assessed as nuclear fragmentation incubated for 48 hrs by Hoechst 33258/PI staining based fluorescence microscopic analysis", "format": "functional, cell-based", "settings": "dose 1.25-5 µM"}, "[21]": {"experiment": "Inhibition of PI3K/AKT/mTOR signalling pathway in human Daudi cells assessed as increase in ratio of AKT phosphorylation at […] residue to total AKT protein level at 3 uM incubated for 12 hrs in the presence of YS49 by Western blot analysis", "format": "cell-based"}, "Daudi [22]": {"tested_on": "Daudi", "experiment": "Induction of apoptosis in human Daudi cells assessed as upregulation of cleaved caspase-9 expression at 0.75 to 3 uM incubated for 24 hrs by Western blot analysis", "format": "functional, cell-based", "settings": "dose 0.75-3 µM"}, "Raji [23]": {"tested_on": "Raji", "experiment": "Induction of cell cycle arrest in human Raji cells assessed as G2 phase cells at 5 uM incubated for 48 hrs by PI staining based flow cytometry analysis (reference value: 10.06%)", "format": "functional"}, "Raji [24]": {"tested_on": "Raji", "experiment": "Induction of apoptosis in human Raji cells assessed as late apoptotic cells at 5 uM incubated for 24 hrs in the presence of YS49 by Annexin V-FITC/PI staining based flow cytometric analysis (reference value: 0.0%)", "format": "functional"}, "Raji [25]": {"tested_on": "Raji", "experiment": "Induction of mitochondrial respiratory chain damage in human Raji cells assessed as decrease in NDUFV2 protein expression at 2.5 to 5 uM incubated for 48 hrs by Western blot analysis", "format": "functional, cell-based", "settings": "dose 2.5-5 µM"}, "[26]": {"experiment": "Inhibition of PI3K/AKT/mTOR signalling pathway in human Daudi cells assessed as inhibition of mTOR phosphorylation incubated for 24 hrs by Western blot analysis", "format": "cell-based", "settings": "dose 0.75-3 µM"}, "Raji [27]": {"tested_on": "Raji", "experiment": "Induction of cell cycle arrest at G0/G1 phase in human Raji cells assessed as downregulation of CDK4 protein expression at 1.25 to 5 uM incubated for 24 to 48 hrs by Western blot analysis", "format": "functional, cell-based", "settings": "dose 1.25-5 µM, time 24-48 hrs"}, "Raji [28]": {"tested_on": "Raji", "experiment": "Induction of apoptosis in human Raji cells assessed as viable cells at 5 uM incubated for 24 hrs in the presence of YS49 by Annexin V-FITC/PI staining based flow cytometric analysis (reference value: 97.8%)", "format": "functional", "settings": "read-out: Activity"}, "Raji [29]": {"tested_on": "Raji", "experiment": "Effect on total AKT protein level in human Raji cells at 1.25 to 5 uM incubated for 24 hrs by Western blot analysis", "format": "functional, cell-based", "settings": "dose 1.25-5 µM"}, "Raji [30]": {"tested_on": "Raji", "experiment": "Induction of apoptosis in human Raji cells assessed as upregulation of cleaved PARP expression at 1.25 to 5 uM incubated for 24 hrs by Western blot analysis", "format": "functional, cell-based", "settings": "dose 1.25-5 µM"}, "Raji [31]": {"tested_on": "Raji", "experiment": "Induction of mitochondrial oxidative damage in human Raji cells assessed as increase in intracellular mitochondrial superoxide generation at 5 uM incubated for 1 to 6 hrs by MitoSOX red dye based flow cytometric analysis", "format": "functional, cell-based", "settings": "time 1-6 hrs"}, "Daudi [32]": {"tested_on": "Daudi", "experiment": "Antiproliferative activity against human Daudi cells assessed as inhibition of cell growth incubated for 48 hrs by CCK-8 assay", "format": "functional, cell-based"}, "Raji [33]": {"tested_on": "Raji", "experiment": "Induction of apoptosis in human Raji cells assessed as late apoptotic cells at 5 uM incubated for 24 hrs by Annexin V-FITC/PI staining based flow cytometric analysis (reference value: 0.0%)", "format": "functional"}, "Daudi [34]": {"tested_on": "Daudi", "experiment": "Induction of apoptosis in human Daudi cells assessed as effect on Bax protein expression at 0.75 to 3 uM incubated for 24 hrs by Western blot analysis", "format": "functional, cell-based", "settings": "dose 0.75-3 µM"}, "Raji [35]": {"tested_on": "Raji", "experiment": "Induction of apoptosis in human Raji cells assessed as nuclear condensation incubated for 48 hrs by Hoechst 33258/PI staining based fluorescence microscopic analysis", "format": "functional, cell-based", "settings": "dose 1.25-5 µM"}, "Raji [36]": {"tested_on": "Raji", "experiment": "Induction of apoptosis in human Raji cells assessed as total apoptotic cells at 5 uM incubated for 48 hrs by Annexin-V/PI staining based flow cytometric analysis relative to control", "format": "functional"}},
  "note": "Active and inactive are the calls of the source. No cut-off for these calls is given here.",
  "data": [
    {"compound": "COc1c(OC)c2c3c(nccc3c1-c1cc(C)cc(C)c1)C(c1cc(C)cc(C)c1)=CN2", "values": [
      {"measurement": "inhibition", "setting": "[1]", "value": "inactive"},
      {"measurement": "Activity", "setting": "Raji [2]", "value": "Active"},
      {"measurement": "inhibition", "setting": "[3]", "value": "Dose-Dependent Effect"},
      {"measurement": "Activity", "setting": "Raji [4]", "value": "Active"},
      {"measurement": "Activity", "setting": "Daudi [5]", "value": 21.6, "unit": "%"},
      {"measurement": "Activity", "setting": "Raji [6]", "value": "Active"},
      {"measurement": "Activity", "setting": "Daudi [7]", "value": 2.2, "unit": "%"},
      {"measurement": "inhibition", "setting": "[8]", "value": "Dose-Dependent Effect"},
      {"measurement": "Activity", "setting": "Raji [9]", "value": "Active"},
      {"measurement": "Activity", "setting": "Daudi [10]", "value": "Active"},
      {"measurement": "Activity", "setting": "Raji [11]", "value": "Active"},
      {"measurement": "Activity", "setting": "Daudi [12]", "value": "Active"},
      {"measurement": "Activity", "setting": "Raji [13]", "value": "Active"},
      {"measurement": "Activity", "setting": "Raji [14]", "value": "Active"},
      {"measurement": "Activity", "setting": "Raji [15]", "value": "inactive"},
      {"measurement": "Activity", "setting": "Raji [16]", "value": "Active"},
      {"measurement": "Activity", "setting": "Daudi [17]", "value": "Active"},
      {"measurement": "Activity", "setting": "Daudi [18]", "value": "Dose-Dependent Effect"},
      {"measurement": "Activity", "setting": "Raji [19]", "value": "Dose-Dependent Effect"},
      {"measurement": "Activity", "setting": "Raji [20]", "value": "Dose-Dependent Effect"},
      {"measurement": "inhibition", "setting": "[21]", "value": "inactive"},
      {"measurement": "Activity", "setting": "Daudi [22]", "value": "Active"},
      {"measurement": "Activity", "setting": "Raji [23]", "value": 9.61, "unit": "%"},
      {"measurement": "Activity", "setting": "Raji [24]", "value": 0.9, "unit": "%"},
      {"measurement": "Activity", "setting": "Raji [25]", "value": "Active"},
      {"measurement": "inhibition", "setting": "[26]", "value": "Dose-Dependent Effect"},
      {"measurement": "Activity", "setting": "Raji [27]", "value": "Active"},
      {"measurement": "viability at 5 µM", "setting": "Raji [28]", "value": 67, "unit": "%"},
      {"measurement": "Activity", "setting": "Raji [29]", "value": "inactive"},
      {"measurement": "Activity", "setting": "Raji [30]", "value": "Active"},
      {"measurement": "Activity", "setting": "Raji [31]", "value": "Active"},
      {"measurement": "IC50", "setting": "Daudi [32]", "value": 3.48, "unit": "µM"},
      {"measurement": "Activity", "setting": "Raji [33]", "value": 4.2, "unit": "%"},
      {"measurement": "Activity", "setting": "Daudi [34]", "value": "inactive"},
      {"measurement": "Activity", "setting": "Raji [35]", "value": "Dose-Dependent Effect"},
      {"measurement": "Activity", "setting": "Raji [36]", "value": 25.8, "unit": "%"}
    ]}
  ]
}
